Experimental data: US20150072968A1, “Treating Infections with Ceftolozane/Tazobactam in Subjects Having Impaired Renal Function” (Calixa Therapeutics, Inc., priority 2013, published 2015)

Legend:
[1] = tested on: complicated intra-abdominal infections; assay: Phase 3 study of complicated intra-abdominal infections, clinical response at TOC visit; format: in vivo, human
Procedure: (§1) A total of 979 adults hospitalized with complicated intra-abdominal infections were randomized and received study medications in a multinational, double-blind study comparing CXA-201 (1.5 g IV every 8 hours) plus metronidazole (500 mg IV every 8 hours) to meropenem (1 g IV every 8 hours) for 4 to 14 days of therapy. Complicated intra-abdominal infections included appendicitis, cholecystitis, diverticulitis, gastric/duodenal perforation, perforation of the intestine, and other causes of intra-abdominal abscesses and peritonitis. The primary efficacy endpoint was clinical response at the test-of-cure (TOC) visit in the microbiological intent-to-treat (MITT) population, which included all patients who had at least 1 baseline intra-abdominal pathogen. The key secondary efficacy endpoint was clinical response at the TOC visit in the microbiologically evaluable (ME) population, which included all protocol-adherent MITT patients.

Aerobic Gram-negative = assay: Phase 3 cIAI study, per pathogen clinical cure; format: in vivo; settings: ME population
Procedure: as §1

Aerobic Gram-positive = assay: Phase 3 cIAI study, per pathogen clinical cure; format: in vivo; settings: ME population
Procedure: as §1

Anaerobic Gram-negative = assay: Phase 3 cIAI study, per pathogen clinical cure; format: in vivo; settings: ME population
Procedure: as §1

Bacteroides fragilis = assay: Phase 3 cIAI study, per pathogen clinical cure; format: in vivo; settings: ME population
Procedure: as §1

Bacteroides ovatus = assay: Phase 3 cIAI study, per pathogen clinical cure; format: in vivo; settings: ME population
Procedure: as §1

[2] = tested on: Bacteroides thetaiotaomicron; assay: Phase 3 cIAI study, per pathogen clinical cure; format: in vivo; settings: ME population
Procedure: as §1

Bacteroides vulgatus = assay: Phase 3 cIAI study, per pathogen clinical cure; format: in vivo; settings: ME population
Procedure: as §1

Enterobacter cloacae = assay: Phase 3 cIAI study, per pathogen clinical cure; format: in vivo; settings: ME population
Procedure: as §1

Escherichia coli [3] = assay: Phase 3 cIAI study, per pathogen clinical cure; format: in vivo; settings: ME population
Procedure: as §1

Klebsiella oxytoca = assay: Phase 3 cIAI study, per pathogen clinical cure; format: in vivo; settings: ME population
Procedure: as §1

Klebsiella pneumoniae [4] = assay: Phase 3 cIAI study, per pathogen clinical cure; format: in vivo; settings: ME population
Procedure: as §1

Proteus mirabilis = assay: Phase 3 cIAI study, per pathogen clinical cure; format: in vivo; settings: ME population
Procedure: as §1

Pseudomonas aeruginosa [5] = assay: Phase 3 cIAI study, per pathogen clinical cure; format: in vivo; settings: ME population
Procedure: as §1

Streptococcus anginosus = assay: Phase 3 cIAI study, per pathogen clinical cure; format: in vivo; settings: ME population
Procedure: as §1

[6] = tested on: Streptococcus constellatus; assay: Phase 3 cIAI study, per pathogen clinical cure; format: in vivo; settings: ME population
Procedure: as §1

Streptococcus salivarius = assay: Phase 3 cIAI study, per pathogen clinical cure; format: in vivo; settings: ME population
Procedure: as §1

[7] = tested on: complicated urinary tract infections (including pyelonephritis); assay: Phase 3 study of complicated urinary tract infections, composite microbiological and clinical cure at TOC visit; format: in vivo, human; settings: for Composite Cure Rate at TOC: levofloxacin-resistant population
Description: (§2) The primary efficacy endpoint was the composite microbiological and clinical cure response at the test-of-cure (TOC) visit in the microbiologically modified intent-to-treat (mMITT) population, which included all patients who received study medication and had at least 1 baseline uropathogen. The key secondary efficacy endpoint was the composite microbiological and clinical cure response at the TOC visit in the microbiologically evaluable (ME) population, which included protocol-adherent mMITT patients with a urine culture at the TOC visit.

Enterobacteriaceae = assay: Phase 3 cUTI study, per pathogen microbiological eradication; format: in vivo; settings: levofloxacin-resistant population, ME
Description: as §2

Escherichia coli [8] = assay: as above; format: in vivo; settings: levofloxacin-resistant population, ME
Description: as §2

Klebsiella pneumoniae [9] = assay: as above; format: in vivo; settings: levofloxacin-resistant population, ME
Description: as §2

Pseudomonas aeruginosa [10] = assay: as above; format: in vivo; settings: levofloxacin-resistant population, ME
Description: as §2

[11] = human, in vivo, 7 days
gram-negative pathogens = assay: Baseline susceptibility testing of cUTI isolates, CLSI broth microdilution; format: cell-based; settings: mMITT population; ceftolozane/tazobactam breakpoint ≦8 mg/1, levofloxacin CLSI criteria
Procedure: (§3) 764 isolates of Gram-negative aerobic organisms were isolated from 800 patients in the microbiological modified intent-to-treat population (enrolled in 20 countries in Eastern Europe, North America, South America and 5 countries outside of these regions). Susceptibility (S) testing was performed with ceftolozane/tazobactam at a fixed 4 μg/mL of tazobactam and 10 antibiotic comparators using CLSI broth microdilution methods. ESBL enzymes were identified by PCR.

E. coli = assay: as above; format: cell-based, Escherichia coli
Procedure: as §3

P. aeruginosa = assay: as above; format: cell-based, Pseudomonas aeruginosa; settings: comparators
Procedure: as §3

[12] = Phase 1 single dose PK of 750 mg ceftolozane/tazobactam in severe renal impairment and ESRD on hemodialysis (Example 8); format: in vivo, human
Procedure: This was a Phase 1, multicenter, prospective, open-label study of 750 mg ceftolozane/tazobactam (as CXA-201) administered IV in male and female adult subjects with severe renal impairment (estimated CLCR<30 mL/min) and subjects with end-stage renal disease (ESRD) on hemodialysis (HD). The primary objective of the study was to determine the PK profile of ceftolozane/tazobactam in subjects with severe renal impairment and subjects with ESRD on HD and to determine the effect of HD on the clearance of ceftolozane/tazobactam.
Subjects with severe renal impairment received a single IV 1-hour infusion of 750 mg ceftolozane/tazobactam on Day 1. […] Subjects in this cohort received an IV dose of 750 mg ceftolozane/tazobactam as a 1 hour infusion immediately after their first HD session on Day 1 (postdialysis, approximately 72 hours prior to the next HD session) and a second dose of ceftolozane/tazobactam approximately 2 hours before their second HD session on Day 4 of the study. Infusion of ceftolozane/tazobactam was completed approximately 1 hour before the start of HD.
Subjects in both cohorts had urine (if not anuric) and plasma samples collected for determination of levels of ceftolozane, tazobactam and the M1 metabolite of tazobactam; subjects in the ESRD on HD cohort also had dialysate fluid samples collected for PK assessment. Plasma, urine, and dialysate levels of ceftolozane, tazobactam, and its metabolite M1 collected over a prespecified interval were determined by LC/MS/MS assay.
All subjects underwent hemodialysis for 3 to 4 hours using a high-flux membrane (either 1.4, 1.8, or 1.9 m^2) on Days 1, 4, and 6 as scheduled. Average blood flow rate was 264 to 600 mL/min and average dialysis flow rate was either 600 or 800 mL/min for all subjects with ESRD.

[13] = tested on: Klebsiella pneumoniae (KPN); assay: Baseline susceptibility testing of cUTI isolates, CLSI broth microdilution; format: cell-based
Procedure: as §3

[14] = ESRD on HD, second IV infusion of 750 mg on Day 4 (during HD)
[15] = ESRD on HD, second infusion Day 4, start of infusion to end of dialysis
[16] = severe renal impairment, single IV 1-hour infusion of 750 mg ceftolozane/tazobactam

C[C@@H](O)[C@H]1C(=O)N2C(C(=O)O)=C(S[C@@H]3CN[C@H](C(=O)N(C)C)C3)[C@H](C)[C@H]12 [Meropenem]
Clinical cure rate at TOC visit ([1]; ME population): 304/321 (94.7) % | Clinical cure rate at TOC visit ([1]; MITT population): 364/417 (87.3) % | Per pathogen clinical cure rate (Aerobic Gram-negative): 273/291 (93.8) % | Per pathogen clinical cure rate (Aerobic Gram-positive): 170/185 (91.9) % | Per pathogen clinical cure rate (Anaerobic Gram-negative): 132/137 (96.4) % | Per pathogen clinical cure rate (Bacteroides fragilis): 56/57 (98.2) % | Per pathogen clinical cure rate (Bacteroides ovatus): 42/42 (100) % | Per pathogen clinical cure rate [2]: 40/43 (93.0) % | Per pathogen clinical cure rate (Bacteroides vulgatus): 21/22 (95.5) % | Per pathogen clinical cure rate (Enterobacter cloacae): 22/22 (100) % | Per pathogen clinical cure rate (Escherichia coli [3]; Escherichia coli): 216/231 (93.5) % | Per pathogen clinical cure rate (Escherichia coli [3]; Escherichia coli (CTX-M-14/15 ESBL-producing)): 7/9 (77.8) % | Per pathogen clinical cure rate (Escherichia coli [3]; Escherichia coli (EBSL-producing)): 18/20 (90.0) % | Per pathogen clinical cure rate (Klebsiella oxytoca): 21/22 (95.5) % | Per pathogen clinical cure rate (Klebsiella pneumoniae [4]; Klebsiella pneumonia): 22/25 (88.0) % | Per pathogen clinical cure rate (Klebsiella pneumoniae [4]; Klebsiella pneumoniae (CTX-M-15 ESBL-producing)): 7/9 (77.8) % | Per pathogen clinical cure rate (Klebsiella pneumoniae [4]; Klebsiella pneumoniae (ESBL-producing)): 3/4 (75.0) % | Per pathogen clinical cure rate (Proteus mirabilis): 9/10 (90.0) % | Per pathogen clinical cure rate (Pseudomonas aeruginosa [5]): 27/29 (93.1) % | Per pathogen clinical cure rate (Streptococcus anginosus): 23/23 (100) % | Per pathogen clinical cure rate [6]: 20/23 (87.0) % | Per pathogen clinical cure rate (Streptococcus salivarius): 8/8 (100) %

C[C@H]1COc2c(N3CCN(C)CC3)c(F)cc3c(=O)c(C(=O)O)cn1c23 [Levofloxacin]
Composite microbiological and clinical cure rate at TOC visit ([7]; ME population): 266/353 (75.4) % | Composite Cure Rate at TOC ([7]; ME): 43.4% | Composite Cure Rate at TOC ([7]; mMITT): 39.3% | Composite microbiological and clinical cure rate at TOC visit ([7]; mMITT population): 275/402 (68.4) % | Per-pathogen Microbiological Eradication Rate at TOC (Enterobacteriaceae): 45.2% | Per-pathogen Microbiological Eradication Rate at TOC (Escherichia coli [8]): 44.1% | Per-pathogen Microbiological Eradication Rate at TOC (Klebsiella pneumoniae [9]): 30.0 (3/10) % | Per-pathogen Microbiological Eradication Rate at TOC (Pseudomonas aeruginosa [10]): 37.5 (3/8) % | adverse event gastrointestinal symptoms [11]: 11.4% | adverse event headache [11]: 4.9% | incidence of treatment-limiting adverse events [11]: < 2% | patients with adverse events [11]: 34.4% | gram-negative pathogens isolated at baseline susceptible (gram-negative pathogens): 70.7% | MIC50 (E. coli; E. coli baseline isolates): 0.03 mg/1 | MIC90 (E. coli; E. coli baseline isolates): > 4 mg/1 | E. coli isolates susceptible (E. coli; mMITT population, regardless of ESBL phenotype): 74.1% | susceptibility of isolates (P. aeruginosa): 35.0%

NCC[C@H](O)C(=O)N[C@@H]1C[C@H](N)[C@@H](O[C@H]2O[C@H](CN)[C@@H](O)[C@H](O)[C@H]2O)[C@H](O)[C@H]1O[C@H]1O[C@H](CO)[C@@H](O)[C@H](N)[C@H]1O [amikacin]
susceptibility of isolates (P. aeruginosa): 55.0%

C[C@@H](O)[C@H]1C(=O)N2C(C(=O)O)=C(SCCN=CN)C[C@H]12 [imipenem]
susceptibility of isolates (P. aeruginosa): 45.0%

CO/N=C(\C(=O)N[C@@H]1C(=O)N2C(C(=O)[O-])=C(C[N+]3(C)CCCC3)CS[C@H]12)c1csc(N)n1 [cefepime]
susceptibility of isolates (P. aeruginosa): 50.0%

C[C@](Cn1ccnn1)([C@@H](N)C(=O)O)S(=O)O [M1 Metabolite]
Cmax, Mean (CV %) ([12]; ESRD on HD, Day 1 IV infusion of 750 mg (non-hemodialysis phase)): 10.0 (40) μg/mL | AUClast, Mean (CV %) ([12]; ESRD on HD, Day 1 IV infusion of 750 mg (non-hemodialysis phase), through 48 hours): 367 (42) μg·h/mL | Cmax, Mean (CV %) [12, 14]: 10.8 (46) μg/mL | tmax, Median (minimum, maximum) [12, 14]: 1.5 (0.5, 24.0) h | AUClast, Mean (CV %) ([12]; ESRD on HD, second IV infusion of 750 mg on Day 4 (during HD), through 44 hours): 176 (40) μg·h/mL | AUClast, Mean (CV %) ([12]; ESRD on HD, second infusion Day 4, approximately 6 hours from start of infusion to end of dialysis): 23.8 (44) μg·h/mL | Cmax, Mean (CV %) [12, 15]: 10.6 (49) μg/mL | t1/2, Mean (CV %) [12, 15]: 1.54 (48) h | tmax, Median (minimum, maximum) [12, 15]: 1.5 (0.5, 1.5) h | AUC∞, Mean (CV %) [12, 16]: 60.3 (30) μg·h/mL | t1/2, Mean (CV %) [12, 16]: 12.0 (29) h | Cmax, Mean (CV %) ([12]; severe renal impairment, single IV 1-hour infusion of 750 mg ceftolozane/tazobactam, plasma): 2.2 (20) μg/mL | AUClast, Mean (CV %) ([12]; severe renal impairment, single IV 1-hour infusion of 750 mg ceftolozane/tazobactam, plasma, through 48 hours): 53.7 (25) μg·h/mL | Exposure (AUC48h) After HD (Day 1), Median (Range) ([12]; subjects with ESRD): 389 (99.8 − 538) μg·h/mL | Exposure (AUC48h) During HD (Day 3), Median (Range) ([12]; subjects with ESRD): 182 (78 − 255) μg·h/mL | removed by dialysis ([12]; subjects with ESRD on HD): ~51% | AUC48h Ratio (Day 3:1), Median (Range) ([12]; subjects with ESRD, during HD vs after HD): 0.49 (0.38 − 0.78) | Percent Removed, Median (Range) ([12]; subjects with ESRD, hemodialysis): 51 (22 − 63) Percent

CC(C)(O/N=C(\C(=O)N[C@@H]1C(=O)N2C(C(=O)[O-])=C(C[n+]3ccccc3)CS[C@H]12)c1csc(N)n1)C(=O)O [ceftazidime]
isolates inhibited at ≦8 μg/mL [13]: 58.2% | susceptibility of isolates (P. aeruginosa): 40.0%
